# Laboratory results as given in ChEMBL document CHEMBL5505966, “Synthesis and pharmacological characterization of conformationally restricted 2-amino-Adipic acid analogs and carboxycyclopropyl glycines as selective metabotropic glutamate 2 receptor agonists” (Eur J Med Chem, 2024).
# The source made the active and inactive calls. The rule behind the calls is not given here.
# Experiments:
# [1] = target: Metabotropic glutamate receptor 2 (Homo sapiens, UniProt Q14416); test: Agonist activity at mGluR2 receptor (unknown origin); type: functional
# [2] = target: Metabotropic glutamate receptor 2 (Rattus norvegicus, UniProt P31421); test: Agonist activity at rat mGluR2 receptor expressed in HEK293 cells by IP-1 HTRF assay; type: functional, cell-based; conditions: read-out: EC50
# Rattus norvegicus [3] = organism: Rattus norvegicus; test: Selectivity ratio of EC50 for agonist activity at rat mGluR7 receptor expressed in HEK293 cells to EC50 for agonist activity at rat mGluR2 receptor expressed in HEK293 cells; type: cell-based
# [4] = target: Metabotropic glutamate receptor 3 (Rattus norvegicus) (UniProt P31422); test: Antagonist activity at rat mGluR3 receptor expressed in HEK293 cells by IP-1 HTRF assay; type: functional, cell-based
# [5] = target: Metabotropic glutamate receptor 8 (Rattus norvegicus) (UniProt P70579); test: Antagonist activity at rat mGluR8 receptor expressed in HEK293 cells by IP-1 HTRF assay; type: functional, cell-based
# [6] = target: Metabotropic glutamate receptor 4 (Rattus norvegicus) (UniProt P31423); test: Agonist activity at rat mGluR4 receptor expressed in HEK293 cells at 30 uM by IP-1 HTRF assay; type: functional, cell-based
# [7] = target: Metabotropic glutamate receptor 5 (Rattus norvegicus) (UniProt P31424); test: Antagonist activity at rat mGluR5 receptor expressed in HEK293 cells by IP-1 HTRF assay; type: functional, cell-based
# [8] = target: Metabotropic glutamate receptor 2 (Rattus norvegicus) (UniProt P31421); test: Antagonist activity at rat mGluR2 receptor expressed in HEK293 cells by IP-1 HTRF assay; type: functional, cell-based
# Rattus norvegicus [9] = organism: Rattus norvegicus; test: Selectivity ratio of EC50 for agonist activity at rat mGluR4 receptor expressed in HEK293 cells to EC50 for agonist activity at rat mGluR2 receptor expressed in HEK293 cells; type: cell-based
# [10] = target: Metabotropic glutamate receptor 5 (Rattus norvegicus, UniProt P31424); test: Agonist activity at rat mGluR5 receptor expressed in HEK293 cells by IP-1 HTRF assay; type: functional, cell-based
# [11] = target: Metabotropic glutamate receptor 1 (Rattus norvegicus, UniProt P23385); test: Agonist activity at rat mGluR1 receptor expressed in HEK293 cells by IP-1 HTRF assay; type: functional, cell-based
# [12] = target: Metabotropic glutamate receptor 6 (Rattus norvegicus, UniProt P35349); test: Agonist activity at rat mGluR6 receptor expressed in HEK293 cells by IP-1 HTRF assay; type: functional, cell-based
# [13] = target: Metabotropic glutamate receptor 7 (Rattus norvegicus) (UniProt P35400); test: Antagonist activity at rat mGluR7 receptor expressed in HEK293 cells by IP-1 HTRF assay; type: functional, cell-based
# Rattus norvegicus [14] = organism: Rattus norvegicus; test: Selectivity ratio of EC50 for agonist activity at rat mGluR6 receptor expressed in HEK293 cells to EC50 for agonist activity at rat mGluR2 receptor expressed in HEK293 cells; type: cell-based
# [15] = target: Metabotropic glutamate receptor 4 (Rattus norvegicus) (UniProt P31423); test: Antagonist activity at rat mGluR4 receptor expressed in HEK293 cells by IP-1 HTRF assay; type: functional, cell-based
# Rattus norvegicus [16] = organism: Rattus norvegicus; test: Selectivity ratio of EC50 for agonist activity at rat mGluR8 receptor expressed in HEK293 cells to EC50 for agonist activity at rat mGluR2 receptor expressed in HEK293 cells; type: cell-based
# [17] = target: Metabotropic glutamate receptor 6 (Rattus norvegicus) (UniProt P35349); test: Antagonist activity at rat mGluR6 receptor expressed in HEK293 cells by IP-1 HTRF assay; type: functional, cell-based
# [18] = target: Metabotropic glutamate receptor 8 (Rattus norvegicus) (UniProt P70579); test: Agonist activity at rat mGluR8 receptor expressed in HEK293 cells at 30 uM by IP-1 HTRF assay; type: functional, cell-based
# Rattus norvegicus [19] = organism: Rattus norvegicus; test: Selectivity ratio of EC50 for agonist activity at rat mGluR1 receptor expressed in HEK293 cells to EC50 for agonist activity at rat mGluR2 receptor expressed in HEK293 cells; type: cell-based
# [20] = target: Metabotropic glutamate receptor 1 (Rattus norvegicus) (UniProt P23385); test: Antagonist activity at rat mGluR1 receptor expressed in HEK293 cells by IP-1 HTRF assay; type: functional, cell-based
# Rattus norvegicus [21] = organism: Rattus norvegicus; test: Selectivity ratio of EC50 for agonist activity at rat mGluR3 receptor expressed in HEK293 cells to EC50 for agonist activity at rat mGluR2 receptor expressed in HEK293 cells; type: cell-based
# Rattus norvegicus [22] = organism: Rattus norvegicus; test: Selectivity ratio of EC50 for agonist activity at rat mGluR5 receptor expressed in HEK293 cells to EC50 for agonist activity at rat mGluR2 receptor expressed in HEK293 cells; type: cell-based
# [23] = target: Metabotropic glutamate receptor 7 (Rattus norvegicus) (UniProt P35400); test: Agonist activity at rat mGluR7 receptor expressed in HEK293 cells at 30 uM by IP-1 HTRF assay; type: functional, cell-based
# [24] = target: Metabotropic glutamate receptor 3 (Rattus norvegicus, UniProt P31422); test: Agonist activity at rat mGluR3 receptor expressed in HEK293 cells by IP-1 HTRF assay; type: functional, cell-based
# [25] = target: Metabotropic glutamate receptor 3 (Rattus norvegicus) (UniProt P31422); test: Agonist activity at rat mGluR3 receptor expressed in HEK293 cells at 3 uM by IP-1 HTRF assay; type: functional, cell-based; conditions: filed as agonist
# [26] = target: Metabotropic glutamate receptor 2 (Rattus norvegicus) (UniProt P31421); test: Agonist activity at rat mGluR2 receptor expressed in HEK293 cells at 100 uM by IP-1 HTRF assay; type: functional, cell-based
# [27] = target: Metabotropic glutamate receptor 8 (Rattus norvegicus) (UniProt P70579); test: Agonist activity at rat mGluR8 receptor expressed in HEK293 cells at 100 uM by IP-1 HTRF assay; type: functional, cell-based
# [28] = target: Metabotropic glutamate receptor 1 (Rattus norvegicus) (UniProt P23385); test: Agonist activity at rat mGluR1 receptor expressed in HEK293 cells at 100 uM by IP-1 HTRF assay; type: functional, cell-based
# [29] = target: Metabotropic glutamate receptor 6 (Rattus norvegicus) (UniProt P35349); test: Agonist activity at rat mGluR6 receptor expressed in HEK293 cells at 100 uM by IP-1 HTRF assay; type: functional, cell-based
# [30] = target: Metabotropic glutamate receptor 5 (Rattus norvegicus) (UniProt P31424); test: Agonist activity at rat mGluR5 receptor expressed in HEK293 cells at 100 uM by IP-1 HTRF assay; type: functional, cell-based
# [31] = target: Metabotropic glutamate receptor 7 (Rattus norvegicus) (UniProt P35400); test: Agonist activity at rat mGluR7 receptor expressed in HEK293 cells at 100 uM by IP-1 HTRF assay; type: functional, cell-based
# [32] = target: Metabotropic glutamate receptor 3 (Rattus norvegicus) (UniProt P31422); test: Agonist activity at rat mGluR3 receptor expressed in HEK293 cells at 100 uM by IP-1 HTRF assay; type: functional, cell-based
# [33] = target: Metabotropic glutamate receptor 4 (Rattus norvegicus) (UniProt P31423); test: Agonist activity at rat mGluR4 receptor expressed in HEK293 cells at 100 uM by IP-1 HTRF assay; type: functional, cell-based
# Metabotropic glutamate receptor 4 (Rattus norvegicus), sequence (P31423 whole entry): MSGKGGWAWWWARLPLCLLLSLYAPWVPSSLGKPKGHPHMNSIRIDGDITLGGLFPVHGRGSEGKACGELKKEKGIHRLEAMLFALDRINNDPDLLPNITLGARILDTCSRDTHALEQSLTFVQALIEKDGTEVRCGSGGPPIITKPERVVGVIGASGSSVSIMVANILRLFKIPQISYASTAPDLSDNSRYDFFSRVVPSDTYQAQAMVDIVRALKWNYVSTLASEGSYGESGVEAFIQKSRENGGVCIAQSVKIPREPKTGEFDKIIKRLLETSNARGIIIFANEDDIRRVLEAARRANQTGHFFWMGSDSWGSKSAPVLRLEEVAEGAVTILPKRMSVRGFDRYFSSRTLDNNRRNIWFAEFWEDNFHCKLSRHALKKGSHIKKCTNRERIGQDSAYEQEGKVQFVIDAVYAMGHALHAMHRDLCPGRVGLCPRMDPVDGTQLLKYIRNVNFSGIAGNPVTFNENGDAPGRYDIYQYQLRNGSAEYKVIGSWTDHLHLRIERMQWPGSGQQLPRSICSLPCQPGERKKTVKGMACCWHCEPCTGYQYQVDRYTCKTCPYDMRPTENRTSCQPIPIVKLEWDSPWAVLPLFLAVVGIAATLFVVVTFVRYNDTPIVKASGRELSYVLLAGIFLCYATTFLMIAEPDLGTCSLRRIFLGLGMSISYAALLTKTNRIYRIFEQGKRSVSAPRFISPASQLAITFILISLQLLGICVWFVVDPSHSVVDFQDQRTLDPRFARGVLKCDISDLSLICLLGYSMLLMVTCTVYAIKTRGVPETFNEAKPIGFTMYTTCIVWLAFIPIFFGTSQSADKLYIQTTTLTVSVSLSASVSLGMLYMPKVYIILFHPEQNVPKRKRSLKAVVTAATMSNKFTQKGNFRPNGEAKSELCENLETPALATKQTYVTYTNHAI
# Metabotropic glutamate receptor 2 (Rattus norvegicus), sequence (P31421 19-872 limits assumed): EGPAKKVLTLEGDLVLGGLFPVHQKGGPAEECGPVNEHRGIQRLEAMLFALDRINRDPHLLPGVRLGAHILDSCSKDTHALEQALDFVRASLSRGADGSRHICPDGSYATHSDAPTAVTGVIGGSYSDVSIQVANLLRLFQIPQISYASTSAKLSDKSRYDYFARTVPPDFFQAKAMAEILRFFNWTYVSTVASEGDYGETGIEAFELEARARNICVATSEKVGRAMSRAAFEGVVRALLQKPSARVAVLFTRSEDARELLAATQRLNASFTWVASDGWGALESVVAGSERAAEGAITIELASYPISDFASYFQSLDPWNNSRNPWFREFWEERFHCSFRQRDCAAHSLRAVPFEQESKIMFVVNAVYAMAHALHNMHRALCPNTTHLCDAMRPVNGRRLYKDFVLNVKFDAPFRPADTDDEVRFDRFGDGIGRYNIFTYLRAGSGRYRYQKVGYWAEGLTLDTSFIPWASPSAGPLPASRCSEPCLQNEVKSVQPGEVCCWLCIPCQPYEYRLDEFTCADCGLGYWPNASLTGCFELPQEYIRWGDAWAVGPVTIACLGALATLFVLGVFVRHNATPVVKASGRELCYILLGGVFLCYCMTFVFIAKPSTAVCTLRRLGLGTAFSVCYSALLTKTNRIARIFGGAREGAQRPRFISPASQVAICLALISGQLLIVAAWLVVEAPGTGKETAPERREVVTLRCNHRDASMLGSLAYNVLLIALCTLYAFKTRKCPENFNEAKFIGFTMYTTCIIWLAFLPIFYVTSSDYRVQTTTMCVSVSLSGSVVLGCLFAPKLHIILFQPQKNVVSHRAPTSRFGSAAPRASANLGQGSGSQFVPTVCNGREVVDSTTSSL
# Metabotropic glutamate receptor 3 (Rattus norvegicus), sequence (P31422 23-879 limits assumed): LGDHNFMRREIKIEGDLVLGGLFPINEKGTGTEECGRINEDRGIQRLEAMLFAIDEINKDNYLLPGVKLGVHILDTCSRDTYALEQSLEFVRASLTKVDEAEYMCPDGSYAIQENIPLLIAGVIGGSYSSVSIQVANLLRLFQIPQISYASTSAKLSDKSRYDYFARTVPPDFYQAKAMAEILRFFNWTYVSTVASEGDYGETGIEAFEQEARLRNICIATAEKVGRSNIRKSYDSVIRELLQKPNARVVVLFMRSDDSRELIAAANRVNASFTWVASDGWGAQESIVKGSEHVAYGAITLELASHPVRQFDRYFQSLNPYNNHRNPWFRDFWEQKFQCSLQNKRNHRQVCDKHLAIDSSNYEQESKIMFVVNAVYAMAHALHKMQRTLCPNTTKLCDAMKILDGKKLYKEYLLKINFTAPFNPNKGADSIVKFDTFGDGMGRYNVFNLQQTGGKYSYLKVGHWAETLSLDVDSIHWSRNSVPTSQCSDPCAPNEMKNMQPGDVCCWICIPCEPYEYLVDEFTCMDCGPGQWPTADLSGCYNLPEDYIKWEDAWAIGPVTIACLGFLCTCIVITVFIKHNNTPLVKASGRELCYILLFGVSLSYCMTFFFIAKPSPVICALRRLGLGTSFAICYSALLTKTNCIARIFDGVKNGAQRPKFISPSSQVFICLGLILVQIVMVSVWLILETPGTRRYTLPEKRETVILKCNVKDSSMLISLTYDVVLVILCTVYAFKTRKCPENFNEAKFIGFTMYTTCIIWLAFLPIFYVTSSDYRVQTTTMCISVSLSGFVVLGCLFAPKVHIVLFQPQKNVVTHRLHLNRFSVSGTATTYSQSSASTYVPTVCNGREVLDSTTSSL
# Metabotropic glutamate receptor 1 (Rattus norvegicus), sequence (P23385 19-1199 limits assumed): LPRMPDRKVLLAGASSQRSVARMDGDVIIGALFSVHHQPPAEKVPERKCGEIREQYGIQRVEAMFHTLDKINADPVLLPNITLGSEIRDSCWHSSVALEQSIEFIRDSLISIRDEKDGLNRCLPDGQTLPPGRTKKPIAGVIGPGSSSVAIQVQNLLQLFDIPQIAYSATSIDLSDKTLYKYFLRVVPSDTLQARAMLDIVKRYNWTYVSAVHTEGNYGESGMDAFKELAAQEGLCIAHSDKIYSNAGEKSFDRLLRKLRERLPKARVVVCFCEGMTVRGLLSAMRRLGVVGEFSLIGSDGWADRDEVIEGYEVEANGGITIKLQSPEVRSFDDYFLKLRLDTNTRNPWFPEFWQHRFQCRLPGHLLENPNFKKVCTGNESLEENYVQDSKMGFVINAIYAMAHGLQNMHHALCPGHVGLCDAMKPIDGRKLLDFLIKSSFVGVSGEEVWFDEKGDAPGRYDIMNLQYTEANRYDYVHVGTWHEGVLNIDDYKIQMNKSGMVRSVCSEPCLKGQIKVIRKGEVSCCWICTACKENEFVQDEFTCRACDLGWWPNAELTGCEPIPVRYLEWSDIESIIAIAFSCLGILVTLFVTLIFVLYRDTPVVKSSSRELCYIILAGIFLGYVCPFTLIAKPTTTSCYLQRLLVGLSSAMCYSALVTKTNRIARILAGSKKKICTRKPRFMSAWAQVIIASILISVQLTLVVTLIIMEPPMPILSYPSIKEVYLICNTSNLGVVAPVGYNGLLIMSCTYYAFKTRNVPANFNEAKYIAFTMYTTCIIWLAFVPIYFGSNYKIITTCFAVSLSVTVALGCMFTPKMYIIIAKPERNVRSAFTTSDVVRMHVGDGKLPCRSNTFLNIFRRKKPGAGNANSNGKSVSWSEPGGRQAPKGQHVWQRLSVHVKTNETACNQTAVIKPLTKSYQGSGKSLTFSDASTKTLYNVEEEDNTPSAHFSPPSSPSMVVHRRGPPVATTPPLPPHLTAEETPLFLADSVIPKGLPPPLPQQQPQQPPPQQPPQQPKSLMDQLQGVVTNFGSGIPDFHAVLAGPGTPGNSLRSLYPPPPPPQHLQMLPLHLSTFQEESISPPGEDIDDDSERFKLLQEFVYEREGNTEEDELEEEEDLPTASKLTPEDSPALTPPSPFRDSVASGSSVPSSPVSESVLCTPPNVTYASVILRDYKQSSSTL
# Metabotropic glutamate receptor 5 (Rattus norvegicus), sequence (P31424 21-1203 limits assumed): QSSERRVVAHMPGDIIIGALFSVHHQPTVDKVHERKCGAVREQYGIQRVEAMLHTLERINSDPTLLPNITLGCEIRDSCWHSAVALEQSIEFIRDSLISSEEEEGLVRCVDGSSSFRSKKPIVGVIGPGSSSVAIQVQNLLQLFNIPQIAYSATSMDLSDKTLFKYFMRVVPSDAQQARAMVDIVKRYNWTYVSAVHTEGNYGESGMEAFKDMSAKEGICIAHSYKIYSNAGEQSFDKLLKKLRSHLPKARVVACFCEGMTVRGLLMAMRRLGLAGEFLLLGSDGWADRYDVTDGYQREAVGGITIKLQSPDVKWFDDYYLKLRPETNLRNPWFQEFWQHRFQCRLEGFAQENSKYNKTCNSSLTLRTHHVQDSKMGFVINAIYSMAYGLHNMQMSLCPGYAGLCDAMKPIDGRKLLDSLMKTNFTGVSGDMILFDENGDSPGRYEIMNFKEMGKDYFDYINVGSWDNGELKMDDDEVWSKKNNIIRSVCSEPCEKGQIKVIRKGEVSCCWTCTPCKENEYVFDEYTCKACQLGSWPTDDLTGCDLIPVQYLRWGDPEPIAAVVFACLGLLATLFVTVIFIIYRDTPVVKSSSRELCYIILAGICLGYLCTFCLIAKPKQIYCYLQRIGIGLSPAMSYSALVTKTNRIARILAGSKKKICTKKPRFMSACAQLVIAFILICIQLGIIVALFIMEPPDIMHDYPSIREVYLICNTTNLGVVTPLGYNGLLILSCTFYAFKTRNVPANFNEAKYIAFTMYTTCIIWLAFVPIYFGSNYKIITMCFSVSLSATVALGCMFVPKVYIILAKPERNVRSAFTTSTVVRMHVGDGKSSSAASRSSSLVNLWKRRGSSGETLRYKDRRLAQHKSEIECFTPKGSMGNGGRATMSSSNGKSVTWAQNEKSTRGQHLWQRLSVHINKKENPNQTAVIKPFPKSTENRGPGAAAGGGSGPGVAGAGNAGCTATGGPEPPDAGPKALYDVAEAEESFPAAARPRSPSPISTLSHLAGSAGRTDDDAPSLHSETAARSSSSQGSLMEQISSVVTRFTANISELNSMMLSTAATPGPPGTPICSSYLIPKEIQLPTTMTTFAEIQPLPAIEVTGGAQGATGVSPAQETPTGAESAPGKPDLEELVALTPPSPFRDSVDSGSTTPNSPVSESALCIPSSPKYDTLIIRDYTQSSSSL
structure (smiles),measurement,setting,value
N[C@H](C(=O)O)[C@@H]1C[C@H]1C(=O)O,EC50,[1],300 nM
C[C@@]1(C(=O)O)C[C@H]1[C@H](N)C(=O)O,EC50,[2],82 nM
same,Ratio EC50,Rattus norvegicus [3],> 25
same,inhibition,[4],inactive
same,inhibition,[5],inactive
same,Activity,[6],inactive
same,inhibition,[7],inactive
same,inhibition,[8],inactive
same,Ratio EC50,Rattus norvegicus [9],> 25
same,EC50,[10]; read-out: EC50,10600 nM
same,EC50,[10]; read-out: pEC50 (converted),11200 nM
same,EC50,[11]; read-out: EC50,5210 nM
same,EC50,[11]; read-out: pEC50 (converted),5130 nM
same,EC50,[12]; read-out: EC50,2180 nM
same,EC50,[12]; read-out: pEC50 (converted),2140 nM
same,inhibition,[13],inactive
same,Ratio EC50,Rattus norvegicus [14],> 25
same,inhibition,[15],inactive
same,Ratio EC50,Rattus norvegicus [16],> 25
same,inhibition,[17],inactive
same,Activity,[18],inactive
same,Ratio EC50,Rattus norvegicus [19],> 60
same,inhibition,[20],inactive
same,Ratio EC50,Rattus norvegicus [21],15
same,Ratio EC50,Rattus norvegicus [22],> 60
same,Activity,[23],inactive
same,EC50,[24],1220 nM
N[C@@]1(C(=O)O)CO[C@H]2[C@H](C(=O)O)[C@H]21 [LY-379268],EC50,[2],0.6 nM
same,Activity,[25],100%
same,EC50,[24],9 nM
N[C@@H](C[C@H]1C[C@@H]1C(=O)O)C(=O)O,inhibition,[4],inactive
same,inhibition,[5],inactive
same,Activity,[26],inactive
same,Activity,[27],inactive
same,inhibition,[7],inactive
same,inhibition,[8],inactive
same,Activity,[28],inactive
same,Activity,[29],inactive
same,inhibition,[13],inactive
same,inhibition,[15],inactive
same,inhibition,[17],inactive
same,inhibition,[20],inactive
same,Activity,[30],inactive
same,Activity,[31],inactive
same,Activity,[32],inactive
same,Activity,[33],inactive
